Results from the supplement of paper PMC10307832.

What was measured:
Assay in all cases: relative viability (nuclei count vs DMSO), 5 days (fraction); higher = more cells survive
[1] = compound: C[C@]1(c2nc3c(C(N)=O)cccc3[nH]2)CCCN1 [Veliparib] + COc1cc2c(Oc3ccc(NC(=O)C4(C(=O)Nc5ccc(F)cc5)CC4)cc3F)ccnc2cc1OCCCN1CCOCC1 [Foretinib] (partner 0.25 µM)
Outline: (§1)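 Relative viability equals treated-well nuclei counts divided by vehicle-well nuclei counts. Counts came from 4× images of lung cancer cell lines grown in 1536-well plates for 5 days after pin-tool dosing on the day after seeding. Dosing used one drug alone or a fixed anchor-drug dose plus five library-drug doses (not always all listed) in √10 steps, and values are medians of duplicate plates.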

[2] = compound: COC1=CC=C(C=C1)CN2C=CC3=C2C=C(C=C3)C(=O)NO + C[C@]1(O)C[C@@H](c2nc(-c3ccc4ccc(-c5ccccc5)nc4c3)c3c(N)nccn32)C1 [Linsitinib] (partner 1 µM)
Outline: as §1

[3] = compound: C[C@]1(c2nc3c(C(N)=O)cccc3[nH]2)CCCN1 [Veliparib] + Cc1nc(NC(=O)N2CCC[C@H]2C(N)=O)sc1-c1ccnc(C(C)(C)C(F)(F)F)c1 [Alpelisib] (partner 2 µM)
Outline: as §1

[4] = compound: COC1=CC=C(C=C1)CN2C=CC3=C2C=C(C=C3)C(=O)NO + Cc1cc(Nc2cc(N3CCN(C)CC3)nc(Sc3ccc(NC(=O)C4CC4)cc3)n2)n[nH]1 [Tozasertib] (partner 0.1 µM)
Outline: as §1

Cell Line: SW 1573
- relative viability ([1]; first compound 0.02 µM): 0.881
- relative viability ([1]; first compound 0.06325 µM): 0.771
- relative viability ([1]; first compound 0.2 µM): 0.99
- relative viability ([1]; first compound 0.6325 µM): 0.828
- relative viability ([1]; first compound 2 µM): 0.941
- relative viability ([2]; first compound 0.253 µM): 0.835
- relative viability ([2]; first compound 0.8 µM): 0.761
- relative viability ([2]; first compound 2.53 µM): 0.666
- relative viability ([2]; first compound 8 µM): 0.514
- relative viability ([3]; first compound 0.02 µM): 0.803
- relative viability ([3]; first compound 0.06325 µM): 0.867
- relative viability ([3]; first compound 0.2 µM): 0.791
- relative viability ([3]; first compound 0.6325 µM): 0.675
- relative viability ([3]; first compound 2 µM): 0.805
- relative viability ([4]; first compound 0.253 µM): 0.233
- relative viability ([4]; first compound 0.8 µM): 0.188
- relative viability ([4]; first compound 2.53 µM): 0.206
- relative viability ([4]; first compound 8 µM): 0.157
